Test results: ChEMBL document CHEMBL3217570, “A class of novel AA-Trp-Trp-OBzl: synthesis, in vitro anti-proliferation, in vivo anti-tumor action, and intercalation mechanism” (Medchemcomm, 2011)
Residues, ends and D or L forms follow the SMILES beside them. *: point of attachment. OBn = c1ccc(CO*)cc1

Key:
CCRF S-180 [1] = assay: Antiproliferative activity against mouse S180 cells after 48 hrs by MTT assay; type: functional, cell-based; conditions: CCRF S-180, 48 h
K562 = assay: Antiproliferative activity against human K562 cells after 48 hrs by MTT assay; type: functional, cell-based; conditions: K562, 48 h
B16 = assay: Antiproliferative activity against mouse B16 cells after 48 hrs by MTT assay; type: functional, cell-based; conditions: B16, 48 h
H22 = assay: Antiproliferative activity against mouse H22 cells after 48 hrs by MTT assay; type: functional, cell-based; conditions: H22, 48 h
HepG2 = assay: Antiproliferative activity against human HepG2 cells after 48 hrs by MTT assay; type: functional, cell-based; conditions: HepG2, 48 h
CCRF S-180 [2] = assay: Antitumor activity against mouse S180 cells allografted in ICR mouse assessed as tumor growth inhibition at 8.9 mg/kg, ip qd for 7 days relative to control; type: functional; conditions: CCRF S-180, ip, 168 h, route intraperitoneal, read-out: TGI
Mus musculus [3] = assay: Toxicity in mouse S180 cells allografted ICR mouse assessed as liver weight at 8.9 mg/kg, ip qd for 7 days relative to control; type: organism-based, CCRF S-180; parameters: dose 8.9 mg/kg, route intraperitoneal; conditions: in vivo, 168 h
Mus musculus [4] = assay: Toxicity in mouse S180 cells allografted ICR mouse assessed as brain weight at 8.9 mg/kg, ip qd for 7 days relative to control; type: organism-based, CCRF S-180; parameters: dose 8.9 mg/kg, route intraperitoneal; conditions: in vivo, 168 h
Mus musculus [5] = assay: Toxicity in mouse S180 cells allografted ICR mouse assessed as kidney weight at 8.9 mg/kg, ip qd for 7 days relative to control; type: organism-based, CCRF S-180; parameters: dose 8.9 mg/kg, route intraperitoneal; conditions: in vivo, 168 h
Mus musculus [6] = assay: Toxicity in mouse S180 cells allografted ICR mouse assessed as spleen index at 8.9 mg/kg, ip qd for 7 days relative to control; type: organism-based, CCRF S-180; parameters: dose 8.9 mg/kg, route intraperitoneal; conditions: in vivo, 168 h
Mus musculus [7] = assay: Toxicity in mouse S180 cells allografted ICR mouse assessed as increase of body weight at 8.9 mg/kg, ip qd for 7 days relative to control; type: organism-based, CCRF S-180; parameters: dose 8.9 mg/kg, route intraperitoneal; conditions: in vivo, 168 h

Row | IC50 (CCRF S-180 [1]) | IC50 (K562) | IC50 (B16) | IC50 (HepG2) | Structure (SMILES) | IC50 (H22) | inhibition in vivo at 8.9 mg/kg (CCRF S-180 [2]) | Activity (Mus musculus [3]) | Activity (Mus musculus [4]) | Activity (Mus musculus [5]) | Activity (Mus musculus [6]) | Activity (Mus musculus [7])
1 | 72.7 µM | 116 µM | 132 µM | 49.9 µM | C[C@H](N)C(=O)N[C@@H](Cc1c[nH]c2ccccc12)C(=O)N[C@@H](Cc1c[nH]c2ccccc12)C(=O)OCc1ccccc1 (H-Ala-Trp-Trp-OBn) | 84.9 µM | -11.4% | Non-toxic | Non-toxic | Non-toxic | Non-toxic | Toxic
2 | 164 µM | 170 µM | 157 µM | 122 µM | N[C@@H](CC(=O)O)C(=O)N[C@@H](Cc1c[nH]c2ccccc12)C(=O)N[C@@H](Cc1c[nH]c2ccccc12)C(=O)OCc1ccccc1 (H-Asp-Trp-Trp-OBn) | 107 µM | -8.85% | Non-toxic | Non-toxic | Non-toxic | Non-toxic | Toxic
3 | 79.9 µM | 88.6 µM | 159 µM | 58.3 µM | NCC(=O)N[C@@H](Cc1c[nH]c2ccccc12)C(=O)N[C@@H](Cc1c[nH]c2ccccc12)C(=O)OCc1ccccc1 (H-Gly-Trp-Trp-OBn) | 51.1 µM | -6.51% | Non-toxic | Non-toxic | Non-toxic | Non-toxic | Toxic
4 | 36.7 µM | 37.9 µM | 53.4 µM | 41.5 µM | CC(C)C[C@H](N)C(=O)N[C@@H](Cc1c[nH]c2ccccc12)C(=O)N[C@@H](Cc1c[nH]c2ccccc12)C(=O)OCc1ccccc1 (H-Leu-Trp-Trp-OBn) | 36 µM | 13.8% | Non-toxic | Non-toxic | Non-toxic | Non-toxic | Toxic
5 | 33 µM | 34.5 µM | 57.4 µM | 25.9 µM | NCCCC[C@H](N)C(=O)N[C@@H](Cc1c[nH]c2ccccc12)C(=O)N[C@@H](Cc1c[nH]c2ccccc12)C(=O)OCc1ccccc1 (H-Lys-Trp-Trp-OBn) | 33 µM | 15% | Non-toxic | Non-toxic | Non-toxic | Non-toxic | Toxic

Continued, molecule first:

Row | Structure (SMILES) | IC50 (CCRF S-180 [1]) | IC50 (K562) | IC50 (B16) | IC50 (HepG2) | IC50 (H22) | inhibition in vivo at 8.9 mg/kg (CCRF S-180 [2]) | Activity (Mus musculus [3]) | Activity (Mus musculus [4]) | Activity (Mus musculus [5]) | Activity (Mus musculus [6]) | Activity (Mus musculus [7])
6 | N[C@@H](Cc1cnc[nH]1)C(=O)N[C@@H](Cc1c[nH]c2ccccc12)C(=O)N[C@@H](Cc1c[nH]c2ccccc12)C(=O)OCc1ccccc1 (H-His-Trp-Trp-OBn) | 83.3 µM | 101 µM | 100 µM | 97.2 µM | 95.5 µM | 11.9% | Non-toxic | Non-toxic | Non-toxic | Non-toxic | Toxic
7 | O=C(N[C@@H](Cc1c[nH]c2ccccc12)C(=O)N[C@@H](Cc1c[nH]c2ccccc12)C(=O)OCc1ccccc1)[C@@H]1CCCN1 (H-Pro-Trp-Trp-OBn) | 76 µM | 91.8 µM | 94 µM | 91.7 µM | 91.5 µM | 12.5% | Non-toxic | Non-toxic | Non-toxic | Non-toxic | Toxic
8 | C[C@@H](O)[C@H](N)C(=O)N[C@@H](Cc1c[nH]c2ccccc12)C(=O)N[C@@H](Cc1c[nH]c2ccccc12)C(=O)OCc1ccccc1 (H-Thr-Trp-Trp-OBn) | 155 µM | 173 µM | 182 µM | 155 µM | 153 µM | -7.66% | Non-toxic | Non-toxic | Non-toxic | Non-toxic | Toxic
